Measurements as given in patent US10233188B2, “CDK2/4/6 inhibitors” (priority 2016, dated 2019).

Key:
CDK2/Cyclin E1 = CDK2/Cyclin E1 (Homo sapiens (Human), UniProt P24941); experiment: biochemical; details: CDK2_Ki (nM), phosphorylated CDK2/Cyclin E1, 150 μM ATP, Morrison tight-binding fit
Protocol: The assay was initiated with the addition of ATP, following a fifteen minutes pre-incubation of enzyme and inhibitor at room temperature in the reaction mixture. The reaction was stopped after 45 minutes at room temperature by the addition of 50 μL of 80 mM EDTA, pH 7.5.

CDK6/Cyclin D1 = CDK6/Cyclin D1 (Homo sapiens (Human), UniProt Q00534); experiment: biochemical; details: CDK6_Ki (nM), non-phosphorylated CDK6/Cyclin D1, 2 mM ATP, Morrison fit
Sequence of CDK6/Cyclin D1 (Q00534 whole entry): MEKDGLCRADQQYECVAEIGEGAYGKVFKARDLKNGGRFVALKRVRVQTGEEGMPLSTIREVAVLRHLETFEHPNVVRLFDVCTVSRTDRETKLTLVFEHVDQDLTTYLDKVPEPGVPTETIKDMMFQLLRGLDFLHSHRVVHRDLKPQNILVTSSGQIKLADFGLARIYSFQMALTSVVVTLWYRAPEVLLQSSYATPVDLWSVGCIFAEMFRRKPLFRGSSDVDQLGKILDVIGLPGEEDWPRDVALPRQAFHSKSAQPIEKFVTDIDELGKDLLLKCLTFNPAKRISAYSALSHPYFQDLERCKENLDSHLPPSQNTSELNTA
Sequence of CDK6/Cyclin D1 (P24385 whole entry partner): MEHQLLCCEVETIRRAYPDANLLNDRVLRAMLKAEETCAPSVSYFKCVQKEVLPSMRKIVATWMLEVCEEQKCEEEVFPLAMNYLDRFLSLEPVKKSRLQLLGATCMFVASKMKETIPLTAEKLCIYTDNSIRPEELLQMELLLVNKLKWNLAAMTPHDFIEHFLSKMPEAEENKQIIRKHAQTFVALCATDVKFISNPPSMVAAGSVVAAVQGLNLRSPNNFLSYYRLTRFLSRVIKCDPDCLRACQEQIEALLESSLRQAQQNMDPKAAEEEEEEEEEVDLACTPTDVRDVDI

C[C@]1(O)CCC[C@@H]1n1c(=O)ccc2cnc(NC3CCN(S(N)(=O)=O)CC3)nc21 (single isomer, unassigned) [Example 184, (+)-4-({8-[(1R*,2R*)-2-hydroxy-2-methylcyclopentyl]-7-oxo-7,8-dihydropyrido[2,3-d]pyrimidin-2-yl}amino)piperidine-1-sulfonamide]
Ki (CDK2/Cyclin E1): 1.46 nM
Ki (CDK6/Cyclin D1): 11.8 nM

CS(=O)(=O)N1CCC(Nc2ncc3cc(N)c(=O)n(C4CCCC4)c3n2)CC1 [Example 28, 6-amino-8-cyclopentyl-2-{[1-(methylsulfonyl)piperidin-4-yl]amino}pyrido[2,3-d]pyrimidin-7(8H)-one]
Ki (CDK2/Cyclin E1): 1.88 nM
Ki (CDK6/Cyclin D1): 1.2 nM

CNS(=O)(=O)N1CCC(Nc2ncc3cc(C(F)F)c(=O)n([C@H]4CCC[C@]4(C)O)c3n2)CC1 (single isomer, unassigned) [Example 131, (+)-4-({6-(difluoromethyl)-8-[(1R*,2R*)-2-hydroxy-2-methylcyclopentyl]-7-oxo-7,8-dihydropyrido[2,3-d]pyrimidin-2-yl}amino)-N-methylpiperidine-1-sulfonamide]
Ki (CDK2/Cyclin E1): 3.24 nM
Ki (CDK6/Cyclin D1): 23.1 nM

Cc1cc2cnc(NC3CCN(S(C)(=O)=O)CC3)nc2n([C@@H]2CC[C@@H](O)C2)c1=O (single isomer, unassigned) [Example 167, (−)-8-[(1R*,3R*)-3-hydroxycyclopentyl]-6-methyl-2-{[1-(methylsulfonyl)piperidin-4-yl]amino}pyrido[2,3-d]pyrimidin-7(8H)-one]
Ki (CDK2/Cyclin E1): 1.47 nM
Ki (CDK6/Cyclin D1): 1.63 nM

Cc1cc2cnc(NC3CCN(S(=O)(=O)C4CCS(=O)(=O)C4)CC3)nc2n([C@@H]2CCC[C@@]2(C)O)c1=O (single isomer, unassigned; isomer a) [Example 106, (−)-2-[(1-{[(3ξ)-1,1-dioxidotetrahydrothiophen-3-yl]sulfonyl}piperidin-4-yl)amino]-8-[(1R*,2R*)-2-hydroxy-2-methylcyclopentyl]-6-methylpyrido[2,3-d]pyrimidin-7(8H)-one-Isomer A]
Ki (CDK2/Cyclin E1): 0.16 nM
Ki (CDK6/Cyclin D1): 0.11 nM

COC(C)(C)CNS(=O)(=O)N1CCC(Nc2ncc3ccc(=O)n([C@H]4CCC[C@]4(C)O)c3n2)CC1 (single isomer, unassigned) [Example 61, (+)-4-({8-[(1R*,2R*)-2-hydroxy-2-methylcyclopentyl]-7-oxo-7,8-dihydropyrido[2,3-d]pyrimidin-2-yl}amino)-N-(2-methoxy-2-methylpropyl)piperidine-1-sulfonamide]
Ki (CDK2/Cyclin E1): 4.55 nM
Ki (CDK6/Cyclin D1): 19.7 nM

Cn1cnc(S(=O)(=O)N2CCC(Nc3ncc4ccc(=O)n([C@H]5CCC[C@]5(C)O)c4n3)CC2)c1 (single isomer, unassigned) [Example 85, (+)-8-[(1R*,2R*)-2-hydroxy-2-methylcyclopentyl]-2-({1-[(1-methyl-1H-imidazol-4-yl)sulfonyl]piperidin-4-yl}amino)pyrido[2,3-d]pyrimidin-7(8H)-one]
Ki (CDK2/Cyclin E1): 1.98 nM
Ki (CDK6/Cyclin D1): 8.29 nM

CCS(=O)(=O)N1CCC(Nc2ncc3ccc(=O)n([C@@H]4CCC[C@@]4(C)O)c3n2)CC1 (single isomer, unassigned) [Example 76, (−)-2-{[1-(ethylsulfonyl)piperidin-4-yl]amino}-8-[(1R*,2R*)-2-hydroxy-2-methylcyclopentyl]pyrido[2,3-d]pyrimidin-7(8H)-one]
Ki (CDK2/Cyclin E1): 0.21 nM
Ki (CDK6/Cyclin D1): 1.24 nM

COCCS(=O)(=O)N1CCC(Nc2ncc3ccc(=O)n([C@@H]4CCC[C@@H]4C)c3n2)CC1 [Example 52, 2-({1-[(2-methoxyethyl)sulfonyl]piperidin-4-yl}amino)-8-[(1R,2S)-2-methylcyclopentyl]pyrido[2,3-d]pyrimidin-7(8H)-one]
Ki (CDK2/Cyclin E1): 0.12 nM
Ki (CDK6/Cyclin D1): 0.24 nM

CS(=O)(=O)N1CCC(Nc2ncc3ccc(=O)n([C@H]4CCC[C@H](O)C4)c3n2)CC1 [Example 211, 8-[(1S,3S)-3-hydroxycyclohexyl]-2-{[1-(methylsulfonyl)piperidin-4-yl]amino}pyrido[2,3-d]pyrimidin-7(8H)-one]
Ki (CDK2/Cyclin E1): 2.19 nM
Ki (CDK6/Cyclin D1): 2.22 nM

C[C@]1(O)CCC[C@@H]1n1c(=O)ccc2cnc(NC3CCN(S(=O)(=O)CC(F)(F)F)CC3)nc21 (single isomer, unassigned) [Example 87, (+)-8-[(1R*,2R*)-2-hydroxy-2-methylcyclopentyl]-2-({1-[(2,2,2-trifluoroethyl)sulfonyl]piperidin-4-yl}amino)pyrido[2,3-d]pyrimidin-7(8H)-one]
Ki (CDK2/Cyclin E1): 4.38 nM
Ki (CDK6/Cyclin D1): 8.23 nM

CNS(=O)(=O)N1CCC(Nc2ncc3ccc(=O)n([C@@H]4CCC[C@@H]4C)c3n2)CC1 [Example 44, N-methyl-4-({8-[(1R,2S)-2-methylcyclopentyl]-7-oxo-7,8-dihydropyrido[2,3-d]pyrimidin-2-yl}amino)piperidine-1-sulfonamide]
Ki (CDK2/Cyclin E1): 0.09 nM
Ki (CDK6/Cyclin D1): 0.82 nM

CNS(=O)(=O)N1CCC(Nc2ncc3cc(Cl)c(=O)n([C@@H]4CCC[C@@]4(C)O)c3n2)CC1 (single isomer, unassigned) [Example 126, (−)-4-({6-chloro-8-[(1R*,2R*)-2-hydroxy-2-methylcyclopentyl]-7-oxo-7,8-dihydropyrido[2,3-d]pyrimidin-2-yl}amino)-N-methylpiperidine-1-sulfonamide]
Ki (CDK2/Cyclin E1): 0.2 nM
Ki (CDK6/Cyclin D1): 0.96 nM

CCS(=O)(=O)N1CCC(Nc2ncc3ccc(=O)n(C4CCCC4)c3n2)CC1 [Example 16, 8-cyclopentyl-2-{[1-(ethylsulfonyl)piperidin-4-yl]amino}pyrido[2,3-d]pyrimidin-7(8H)-one]
Ki (CDK2/Cyclin E1): 0.48 nM
Ki (CDK6/Cyclin D1): 1.14 nM

C[C@@]1(O)CCC[C@H]1n1c(=O)ccc2cnc(NC3CCN(S(=O)(=O)CC4CC4)CC3)nc21 (single isomer, unassigned) [Example 90, (−)-2-({1-[(cyclopropylmethyl)sulfonyl]piperidin-4-yl}amino)-8-[(1R*,2R*)-2-hydroxy-2-methylcyclopentyl]pyrido[2,3-d]pyrimidin-7(8H)-one]
Ki (CDK2/Cyclin E1): 0.25 nM
Ki (CDK6/Cyclin D1): 0.88 nM

Cc1cc2cnc(NC3CCN(S(C)(=O)=O)CC3)nc2n(C2CCCCC(O)C2)c1=O (single isomer, unassigned; isomer a) [Example 223, 8-(3-hydroxycycloheptyl)-6-methyl-2-{[1-(methylsulfonyl)piperidin-4-yl]amino}pyrido[2,3-d]pyrimidin-7(8H)-one-Isomer A]
Ki (CDK2/Cyclin E1): 57.1 nM
Ki (CDK6/Cyclin D1): 21 nM

Cc1cc2cnc(NC3CCN(S(C)(=O)=O)CC3)nc2n(C2CCCCC(O)C2)c1=O (single isomer, unassigned; isomer c) [Example 225, 8-(3-hydroxycycloheptyl)-6-methyl-2-{[1-(methylsulfonyl)piperidin-4-yl]amino}pyrido[2,3-d]pyrimidin-7(8H)-one-Isomer C]
Ki (CDK2/Cyclin E1): 4.63 nM
Ki (CDK6/Cyclin D1): 3.13 nM

C[C@H]1CCC[C@H]1n1c(=O)c(CCO)cc2cnc(NC3CCN(S(C)(=O)=O)CC3)nc21 [Example 40, 6-(2-hydroxyethyl)-8-[(1R,2S)-2-methylcyclopentyl]-2-{[1-(methylsulfonyl)piperidin-4-yl]amino}pyrido[2,3-d]pyrimidin-7(8H)-one]
Ki (CDK2/Cyclin E1): 0.08 nM
Ki (CDK6/Cyclin D1): 0.14 nM

Cc1cc2cnc(NC3CCN(S(=O)(=O)NC4CCOCC4)CC3)nc2n([C@@H]2CCC[C@@]2(C)O)c1=O (single isomer, unassigned) [Example 96, (−)-4-({8-[(1R*,2R*)-2-hydroxy-2-methylcyclopentyl]-6-methyl-7-oxo-7,8-dihydropyrido[2,3-d]pyrimidin-2-yl}amino)-N-(tetrahydro-2H-pyran-4-yl)piperidine-1-sulfonamide]
Ki (CDK2/Cyclin E1): 0.24 nM
Ki (CDK6/Cyclin D1): 1.06 nM

CS(=O)(=O)N1CCC(Nc2ncc3cc(C(F)F)c(=O)n([C@@H]4CCC[C@@H](O)C4)c3n2)CC1 [Example 212, 6-(difluoromethyl)-8-[(1R,3R)-3-hydroxycyclohexyl]-2-{[1-(methylsulfonyl)piperidin-4-yl]amino}pyrido[2,3-d]pyrimidin-7(8H)-one]
Ki (CDK2/Cyclin E1): 1.2 nM
Ki (CDK6/Cyclin D1): 0.17 nM

CS(=O)(=O)N1CCC(Nc2ncc3cc(CC(F)F)c(=O)n([C@H]4CC[C@H](O)C4)c3n2)CC1 (single isomer, unassigned) [Example 171, (+)-6-(2,2-difluoroethyl)-8-[(1R*,3R*)-3-hydroxycyclopentyl]-2-{[1-(methylsulfonyl)piperidin-4-yl]amino}pyrido[2,3-d]pyrimidin-7(8H)-one]
Ki (CDK2/Cyclin E1): 1.73 nM
Ki (CDK6/Cyclin D1): 1.55 nM

NS(=O)(=O)N1CCC(Nc2ncc3ccc(=O)n(C4CCCCCC4)c3n2)CC1 [Example 21, 4-[(8-cycloheptyl-7-oxo-7,8-dihydropyrido[2,3-d]pyrimidin-2-yl)amino]piperidine-1-sulfonamide]
Ki (CDK2/Cyclin E1): 0.29 nM
Ki (CDK6/Cyclin D1): 7 nM

CC1(C)CC(Nc2ncc3cc(CCO)c(=O)n(C4CCCC4)c3n2)CCN1S(C)(=O)=O (single isomer, unassigned; (+)) [Example 162, (+)-8-cyclopentyl-2-{[2,2-dimethyl-1-(methylsulfonyl)piperidin-4-yl]amino}-6-(2-hydroxyethyl)pyrido[2,3-d]pyrimidin-7(8H)-one]
Ki (CDK2/Cyclin E1): 3.92 nM
Ki (CDK6/Cyclin D1): 12.3 nM

CC(=O)c1c(C)c2cnc(NC3CCN(S(C)(=O)=O)CC3)nc2n([C@@H]2CCC[C@@]2(C)O)c1=O (single isomer, unassigned) [Example 177, (−)-6-acetyl-8-[(1R*,2R*)-2-hydroxy-2-methylcyclopentyl]-5-methyl-2-{[1-(methylsulfonyl)piperidin-4-yl]amino}pyrido[2,3-d]pyrimidin-7(8H)-one]
Ki (CDK2/Cyclin E1): 1.22 nM
Ki (CDK6/Cyclin D1): 0.14 nM

CS(=O)(=O)N1CCC(Nc2ncc3cc(C(F)(F)F)c(=O)n(C4CCCC4)c3n2)CC1 [Example 148, 8-cyclopentyl-2-{[1-(methylsulfonyl)piperidin-4-yl]amino}-6-(trifluoromethyl)pyrido[2,3-d]pyrimidin-7(8H)-one]
Ki (CDK2/Cyclin E1): 4.18 nM
Ki (CDK6/Cyclin D1): 0.26 nM

Cc1cc2cnc(NC3CCN(S(C)(=O)=O)CC3)nc2n(C2CCCCC(O)C2)c1=O (single isomer, unassigned; isomer d) [Example 226, 8-(3-hydroxycycloheptyl)-6-methyl-2-{[1-(methylsulfonyl)piperidin-4-yl]amino}pyrido[2,3-d]pyrimidin-7(8H)-one-Isomer D]
Ki (CDK2/Cyclin E1): 310 nM
Ki (CDK6/Cyclin D1): 6.58 nM
